Key:
[1] = system: blood pressure; assay: Test D: Decrease in Normal Feline Blood Pressure and Heart Rate (anesthetized cat); type: in vivo; details: intravenous, 0.01 to 10.0 mcg/kg, judged only on hypotension
Experimental: The acute effects of test compounds on blood pressure and heart rate were determined in cats of either sex anesthetized with a mixture of pentobarbital sodium (35 mg/kg, i.v.) and barbital sodium (100 mg/kg, i.v.). Cannulas were placed in the trachea to allow adequate spontaneous ventilation, in a femoral artery for blood pressure recording with a strain gage transducer, and in a saphenous vein for drug administration. Heart rate was recorded by means of a cardiotachometer driven by the R wave of the electrocardiogram. After a period of 10 minutes of stable recordings of blood pressure and heart rate, the test compound was administered intravenously at doses increasing from 0.01 to 10.0 mcg/kg, spaced one log and injected at 10 minutes intervals. All doses were injected in a volume of 0.1 ml/kg. Modifications of blood pressure and heart rate induced by the test compound were expressed both in absolute units (mmHg and beats/minutes) and as percent of values recorded immediately before administration of each dose. Biphasic responses were tabulated in the order in which they occur. The direction of the observed changes was also noted (+ for increases and - for decreases).
Activity of compounds in this test was judged only on the basis of the degree of hypotension observed. Thus, the ED50 mmHg (dose decreasing blood pressure by 50 mmHg) was calculated graphically and the compound scored according to the following scale: […]

[2] = system: femoral blood flow; assay: Test C: Increase in Canidae Femoral Blood Flow; type: in vivo; details: anesthetized dog, intraarterial, 0.001 to 10 mcg
Experimental: The peripheral vasodilator or constrictor effects of test compounds were determined in mongrel dogs of either sex, weighing between 10 and 20 kg anesthestized intravenously with 35 mg/kg of sodium pentobarbital. An external iliac artery was dissected immediately above the femoral arch for a length of approximately 5 cm and a previously calibrated, non-connulating electromagnetic flowmeter sensor with a lumen between 2.5 and 3.5 mm was placed snugly around the vessel. Cannulas were placed in a branch of the artery arising distally to the location of the flowmeter sensor for intraarterial drug administrations, in the contralateral femoral artery for systemic blood pressure recordings and in the trachea for artificial respiration with room air. Femoral blood flow and systemic blood pressure were continuously recorded with an electromagnetic flowmeter and pressure tranducer, respectively.
After an adequate control period, test compounds were injected intraarterially at one log-spaced doses ranging from 0.001 to 10 mcg., in a volume of 0.5 ml and at 5 to 10 minute intervals. Maximum changes in bloodflow, as well as any variations in blood pressure, were tabulated for each dose in absolute values (ml/min. and mmHg). The calculations were made taking as control values those existing immediately before administration of each dose. The direction of the observed change (plus for increase and minus for decrease) was also noted. The dose changing bloodflow by 100 ml/min (ED100 ml/min) was calculated graphically and was used for scoring activity as follows: […]

[3] = system: gastric secretion; assay: Test B: Inhibition of Rodent Gastric Secretion (pylorus-ligated rat); type: in vivo; details: subcutaneous, 2 x 1.5 mg/kg (total 3.0 mg/kg), 4 hours after pyloric ligation
Experimental: A procedure based on that described by Lipmann (J. Pharm. Pharmacol., 21:335 [ 1968]) was used to assess the influence of test compounds on gastric secretion. Rats of one sex weighing 150 to 200 g were randomly divided into groups of six animals each and fasted for 48 hours previously to the experiments, water being available adlibitum. The animals were anesthetized with ether, the abdomen was opened through a midline incision and the pylorus was ligated. Test compounds were diluted from stock solution so as to administer a dose of 1.5 mg/kg in a volume equivalent to 1 ml/kg. Subcutaneous injections were applied immediately after surgery and again 2 hours later, so that a total dose of 3.0 mg/kg was administered. Dilutions were made with phosphate buffer (pH 7.38) as recommended by Lee et al. (Prostaglandins 3:29 [ 1973]), in order to insure adequate stability of drugs at the subcutaneous depot. Each compound was tested in one group of rats; an additional control group received only the vehicle.
Four hours after pyloric ligation the animals were killed with ether, the cardias ligated and the stomachs removed. The volume of gastric secretion was measured and the contents centrifuged at 5000 rpm for 10 minutes. Total acid in the supernatant was titrated against a 0.1 N sodium hydroxide solution and the amount expressed in mEq.
Volume and total acid values of the treated group were compared with those of the controls by the "T" test. Antisecretory activity was scored according to the following scale: […]

[4] = system: human platelet aggregation; assay: Test A: Inhibition of Human Platelet Aggregation; type: cell-based; details: human platelet rich plasma, in vitro, collagen-induced, 37° C, 15 minutes
Experimental: The ability of test compounds to inhibit platelet aggreagation was determined by a modification of the turbidometric technique of Born (Nature, 194: 927 [1962]). Blood was collected from human volunteer who had not ingested aspirin or aspirin-containing products within the preceding two weeks in heparinized containers and was allowed to settle for one (1) hour. The platelet rich plasma (prp) supernates were collected and cooled. Siliconized glassware was used throughout.
In a representative assay 1.9 ml of PRP and 0.2 ml of test compound at the appropriate concentrations (0.001 to 100 mcgm), or 0.2 ml of distilled water (control procedure) were placed in sample cuvettes. The cuvettes were placed in a 37° C incubation block for 15 minutes, and then in a spectrophotometer linked to a strip chart recorder. After 30-60 seconds, 0.2 ml of a solution, prepared by diluting a calf-skin collagen solution 1:9 with Tyrodes' Solution, was added to each cuvette. Platelet aggregation was evidenced by a decrease in optical density.
An ED50 value was then determined graphically.

| Compound | Activity Value Test D (ED50 mmHg, dose decreasing blood pressure by 50 mmHg) [1] | Activity Value Test C (ED100 ml/min, dose changing bloodflow by 100 ml/min) [2] | Activity Value Test B (% decrease in acidity) [3] | Activity Value Test A (ED50, inhibition of platelet aggregation) [4] |
| --- | --- | --- | --- | --- |
| O=C(O)CCCCCC[C@H]1C(=O)CC[C@@H]1/C=C/[C@@H](O)C1CC2CCC2C1 (mixture of isomers) [TR-4097, dl-7-{5-oxo-2R-[3S-hydroxy-3-(bicyclo[3.2.0]hept-3-yl)-1E-propenyl]cyclopent-1R-yl}heptanoic acid] | 0 (>10.0) | 1 (1.01 - 10.0) | 2 (26-50, significant) | 1 (>1.0) |
| COC(=O)CCCCCC[C@H]1C(=O)C=C[C@@H]1/C=C/[C@H](O)CCCCC1CCC2CCC1C2 (stereo partly drawn) [TR-4119, methyl 7-{5-oxo-2R-[3R-hydroxy-7-(bicyclo[3.2.1]oct-2-yl)-1E-hepentyl]cyclopent-3-en-1R-yl}heptanoate] | 0 (>10.0) | 0 (>10.0) | 0 (<26) | 1 (>1.0) |
| COC(=O)CCCCCC[C@H]1C(=O)C[C@@H](O)[C@@H]1/C=C/[C@@H](O)C1CC2CCC2C1 (stereo partly drawn) [TR-4099, methyl 7-{3R-hydroxy-5-oxo-2R-[2S-hydroxy-3-(bicyclo[3.2.0]hept-3-yl)-1E-propenyl]cyclopent-1R-yl)heptanoae] | 0 (>10.0) | 0 (>10.0) | 1 (26-50, not significant) | 2 (>0.1≤1.0) |
| O=C(O)CCC/C=C\C[C@H]1C(=O)CC[C@@H]1/C=C/[C@H](O)CCCCC1CCCC2CCCCC21 (relative stereo) [TR-4174, dl-7-{5-oxo-2R-[3R-hydroxy-7-(bicyclo[4.4.0]dec-2-yl)-1E-heptenyl]cyclopent-1R-yl}-hept-5Z-enoic acid] | – | – | – | 1 (>1.0) |
| COC(=O)CCCCCC[C@H]1C(=O)C[C@@H](O)[C@@H]1/C=C/[C@H](O)C1CC2CCC2C1 (stereo partly drawn) [TR-4098, methyl 7-{3R-hydroxy-5-oxo-2R-[3R-hydroxy-3-(bicyclo[3.2.0]hept-3-yl)-1E-propenyl]cyclopent-1R-yl]heptanoate] | 2 (0.11 - 1.0) | 2 (0.11 - 1.0) | 4 (76-100) | – |
| COC(=O)CCCCCC[C@H]1C(=O)C[C@@H](O)[C@@H]1/C=C/[C@@H](O)CCCCC1CCCC2CCCCC21 (some centres unmarked) [TR-4172] | 0 (>10.0) | 0 (>10.0) | 0 (<26) | 1 (>1.0) |
| COC(=O)CCCCCC[C@H]1C(=O)C[C@@H](O)[C@@H]1/C=C/[C@H](O)CCCCC1CCCC2CCCCC21 (some centres unmarked) [TR-4166] | 0 (>10.0) | 0 (>10.0) | 0 (<26) | 1 (>1.0) |
| COC(=O)CCCCCC[C@H]1C(=O)C[C@@H](O)[C@@H]1/C=C/[C@@H](O)CCCCC1CCC2CCC1C2 (stereo partly drawn) [TR-4117, methyl 7-{3R-hydroxy-5-oxo-2R-[3S-hydoxy-7-(bicyclo[3.2.1]oct-2-yl)-1E-heptenyl]cyclopent-1R-yl}heptanoate] | 0 (>10.0) | 0 (>10.0) | 0 (<26) | 1 (>1.0) |
| dl-7-{5-oxo-2R[3R-hydroxy-2-(bicyclo[3.2.0]hept-3-yl)-1E-propenyl]cyclopent- [TR-4101] | 1 (1.01 - 10.0) | 3 (0.01 - 0.1) | 1 (26-50, not significant) | 1 (>1.0) |
| COC(=O)CCCCCC[C@@H]1[C@@H](/C=C/[C@@H](O)C2CC3CCC3C2)[C@H](O)C[C@H]1O (stereo partly drawn) [TR-4712, methyl 7-{3R,5R-dihydroxy-2R-[3S-hydroxy-3-(bicyclo[3.2.0]hept-3-yl)-1E-propenyl]cyclopent-1R-yl}heptanoate] | – | – | 2 (26-50, significant) | – |
| COC(=O)CCCCCC[C@H]1C(=O)C=C[C@@H]1/C=C/[C@@H](O)CCCCC1CCC2CCC1C2 (stereo partly drawn) [TR-4118, methyl 7-{5-oxo-2R-[3S-hydroxy-7-(bicyclo[3.2.1]oct-2-yl)-1E-heptenyl]cyclopent-3-en-1R-yl}heptanoate] | 0 (>10.0) | 0 (>10.0) | 0 (<26) | 1 (>1.0) |
| O=C(O)CCC/C=C\C[C@H]1C(=O)CC[C@@H]1/C=C/[C@@H](O)C1CC2CCC2C1 (mixture of isomers) [TR-4102, dl-7-{5-oxo-2R-[8 3S-hydroxy-3-(bicyclo[3.2.0]hept-3-yl)-1E-propenyl]cyclopent-1R-yl}hept-5Z-enoic acid] | 0 (>10.0) | 2 (0.11 - 1.0) | 4 (76-100) | 1 (>1.0) |
| O=C(O)CCCCCC[C@H]1C(=O)CC[C@@H]1/C=C/[C@H](O)CCCCC1CCCC2CCCCC21 (relative stereo) [TR-4190, dl-7-{5-oxo-2R-[3R-hydroxy-7-(bicyclo[4.4.0]dec-2-yl)-1E-heptenyl]cyclopent-1R-yl}heptanoic acid] | – | – | 0 (<26) | 1 (>1.0) |
| O=C(O)CCCCCC[C@H]1C(=O)CC[C@@H]1/C=C/[C@@H](O)CCCCC1CCCC2CCCCC21 (relative stereo) [TR-4189, dl-7-{5-oxo-2R[3S-hydroxy-7-(bicyclo[4.4.0]dec-2-yl)-1E-heptenyl]cyclopent-1R-yl}heptanoic acid] | – | – | 0 (<26) | 1 (>1.0) |
| COC(=O)CCCCCC[C@@H]1[C@@H](/C=C/[C@@H](O)C2CC3CCC3C2)[C@H](O)C[C@@H]1O (stereo partly drawn) [TR-4711, methyl 7-{3R, 5S-dihydroxy-2R-[3S-hydroxy-3-(bicyclo[3.2.0]hept-3-yl)-1E-propenyl]cyclopent-1R-yl}heptanoate] | – | – | 1 (26-50, not significant) | – |
| O=C(O)CCC/C=C\C[C@H]1C(=O)CC[C@@H]1/C=C/[C@H](O)CCCCC1CCCC2CCCCC21 (mixture of isomers) [TR-4173, dl-7-{5-oxo-2R-[3R-hydroxy-7-(bicyclo[4.4.0]dec-2-yl)-1E-heptenyl]cyclopent-1R-yl}hept-5Z-enoic acid] | – | – | – | 1 (>1.0) |

Source: patent US4115453A (Miles Laboratories, Inc., priority 1977, dated 1978)
